Measured values reported in US12421242B2, “Substituted tetrahydropyrrolo-pyridinone compounds and their use in treating medical conditions” (Karuna Therapeutics, Inc., priority 2022, dated 2025).

Key:
hM4 receptors = molecular target: T1, hM4 receptors (Homo sapiens, UniProt P08173); experiment: Human M4 PAM pERK assay; type: cell-based; settings: PAM mode
T1 construct: expressed in transfected cells; host or cells: CHO cells
T1 sequence (P08173 1-479): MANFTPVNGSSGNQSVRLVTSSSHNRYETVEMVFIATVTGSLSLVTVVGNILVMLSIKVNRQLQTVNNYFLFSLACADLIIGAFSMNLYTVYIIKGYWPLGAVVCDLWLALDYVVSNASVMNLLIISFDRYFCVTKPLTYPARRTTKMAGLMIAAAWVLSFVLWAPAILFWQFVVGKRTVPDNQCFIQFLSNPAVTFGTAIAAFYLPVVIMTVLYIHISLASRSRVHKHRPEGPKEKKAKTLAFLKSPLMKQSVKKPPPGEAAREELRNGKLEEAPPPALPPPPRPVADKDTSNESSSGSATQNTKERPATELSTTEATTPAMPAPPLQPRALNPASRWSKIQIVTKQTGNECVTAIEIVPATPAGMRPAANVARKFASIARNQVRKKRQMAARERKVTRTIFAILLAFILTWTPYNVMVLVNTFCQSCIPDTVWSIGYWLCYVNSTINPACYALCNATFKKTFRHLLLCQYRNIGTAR
Procedure, shortened: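 CHO cells expressing hM4 or rM4 were serum-starved 4 h, then given compound (ten-point curve, 10 μM top, duplicate) with an EC20 of acetylcholine (10 nM final) for 5 min at 37° C. Phospho-ERK in lysates was detected by TR-FRET.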

[1] = test system: AMP-evoked hyperlocomotion; experiment: Amphetamine-evoked hyperlocomotion in rats (open field); type: in vivo; settings: adult male Sprague Dawley rats; 0.5 mg/kg amphetamine s.c.; distance traveled during the last 60 minutes of the 90-minute session
Protocol: Compounds may be tested for ability to impact behavior activity of rats according to the following procedures. Animals: Adult male, Sprague Dawley rats (Envigo, Indianapolis, IN, USA) are housed in a colony maintained at 23° C. with 12 h light/dark cycles (lights on at 0600 hours). All animals weigh 290-330 g at the beginning of the study and are equally divided into 5 groups (n=8 per group) and received one of the treatment conditions listed below. Behavioral Procedures: Studies are conducted in MedAssociates open field chambers (27.3 cm×27.3 cm×20.3 cm, MedAssociates, St. Albans, VT) in which movement is automatically tracked and recorded by 16 beam arrays. The administration pretreatment of the test article is determined to coincide with Tmax at the time of the amphetamine-evoked session with optimal route of administration. All groups are subcutaneously treated with 0.5 mg/kg amphetamine (AMP). The test article is tested in three dose groups with a half-log increase between doses. […] Locomotor data (distance traveled) is recorded as 5-minute bins throughout the 90-minute session. […] Statistical Analysis: Spontaneous locomotion (prior to AMP administration) is calculated as the total distance traveled during the first 30 minutes of the experimental session. AMP-evoked responses are calculated as the total distance traveled during the last 60 minutes of the experimental session which commenced immediately after AMP administration. Locomotor data may be analyzed by a one-way ANOVA. When there is a significant overall ANOVA, post hoc comparisons may be made by Dunnett's test with statistical significance determined as p<0.05. […] Behavioral Procedures: Studies were conducted in MedAssociates open field chambers (27.3 cm×27.3 cm×20.3 cm, MedAssociates, St. Albans, VT) in which movement was automatically tracked and recorded by 16 beam arrays. Administration pretreatment of the test article was determined to coincide with Tmax at the time of the amphetamine-evoked session with optimal route of administration. […]

EC50 (hM4 receptors) [nM] | SMILES | Dose Amount of Compound at which rats displayed a reduction in amphetamine-evoked hyperlocomotion activity [1] [mg/kg]
< 100 | COc1c2c(n(C)c(=O)c1C)CN(C(=O)c1cnn(C(F)(F)F)c1)C2 [Compound I-87] | 32
< 100 | Cc1c2c(n(C)c(=O)c1Cl)CN(C(=O)c1cnn(C(F)(F)F)c1)[C@@H]2C [Compound I-76, (R)-3-Chloro-1,4,5-trimethyl-6-(1-(trifluoromethyl)-1H-pyrazole-4-carbonyl)-1,5,6,7-tetrahydro-2H-pyrrolo[3,4-b]pyridin-2-one] | 3.2
< 100 | Cc1c2c(n(C)c(=O)c1Cl)CN(C(=O)c1cnn(C(F)(F)F)c1)C2 [Compound I-1, 3-chloro-1,4-dimethyl-6-(1-(Trifluoromethyl)-1H-pyrazole-4-carbonyl)-1,5,6,7-tetrahydro-2H-pyrrolo[3,4-b]pyridin-2-one] | 32
